For data set [1], the species on record is Homo sapiens. The data set is described as follows: Inhibition of MAGI3-PTEN interaction assessed as activation of PKB at 5 uM.
The species entered for data set [2] is Homo sapiens. In words: Inhibition of MAGI3-PTEN interaction at 10 uM.
The nature of data set [3]: Solubility in water. Format: physicochemical.
Another data set deals with HEK293. In words: Inhibition of receptor recycling in HEK293 cells assessed as reduction of adrenergic beta-2 receptor expression. Format: functional, cell-based. The settings on record: Homo sapiens.
For data set [4], the target named is Cystic fibrosis transmembrane conductance regulator (Homo sapiens) (UniProt P13569). In words: Inhibition of […]-mediated chloride transport in human bronchial epithelial cells by voltage clamp method. Format: cell-based. To be noted: Epithelial cell.
Chain of Cystic fibrosis transmembrane conductance regulator (Homo sapiens) (P13569 whole entry, looked up): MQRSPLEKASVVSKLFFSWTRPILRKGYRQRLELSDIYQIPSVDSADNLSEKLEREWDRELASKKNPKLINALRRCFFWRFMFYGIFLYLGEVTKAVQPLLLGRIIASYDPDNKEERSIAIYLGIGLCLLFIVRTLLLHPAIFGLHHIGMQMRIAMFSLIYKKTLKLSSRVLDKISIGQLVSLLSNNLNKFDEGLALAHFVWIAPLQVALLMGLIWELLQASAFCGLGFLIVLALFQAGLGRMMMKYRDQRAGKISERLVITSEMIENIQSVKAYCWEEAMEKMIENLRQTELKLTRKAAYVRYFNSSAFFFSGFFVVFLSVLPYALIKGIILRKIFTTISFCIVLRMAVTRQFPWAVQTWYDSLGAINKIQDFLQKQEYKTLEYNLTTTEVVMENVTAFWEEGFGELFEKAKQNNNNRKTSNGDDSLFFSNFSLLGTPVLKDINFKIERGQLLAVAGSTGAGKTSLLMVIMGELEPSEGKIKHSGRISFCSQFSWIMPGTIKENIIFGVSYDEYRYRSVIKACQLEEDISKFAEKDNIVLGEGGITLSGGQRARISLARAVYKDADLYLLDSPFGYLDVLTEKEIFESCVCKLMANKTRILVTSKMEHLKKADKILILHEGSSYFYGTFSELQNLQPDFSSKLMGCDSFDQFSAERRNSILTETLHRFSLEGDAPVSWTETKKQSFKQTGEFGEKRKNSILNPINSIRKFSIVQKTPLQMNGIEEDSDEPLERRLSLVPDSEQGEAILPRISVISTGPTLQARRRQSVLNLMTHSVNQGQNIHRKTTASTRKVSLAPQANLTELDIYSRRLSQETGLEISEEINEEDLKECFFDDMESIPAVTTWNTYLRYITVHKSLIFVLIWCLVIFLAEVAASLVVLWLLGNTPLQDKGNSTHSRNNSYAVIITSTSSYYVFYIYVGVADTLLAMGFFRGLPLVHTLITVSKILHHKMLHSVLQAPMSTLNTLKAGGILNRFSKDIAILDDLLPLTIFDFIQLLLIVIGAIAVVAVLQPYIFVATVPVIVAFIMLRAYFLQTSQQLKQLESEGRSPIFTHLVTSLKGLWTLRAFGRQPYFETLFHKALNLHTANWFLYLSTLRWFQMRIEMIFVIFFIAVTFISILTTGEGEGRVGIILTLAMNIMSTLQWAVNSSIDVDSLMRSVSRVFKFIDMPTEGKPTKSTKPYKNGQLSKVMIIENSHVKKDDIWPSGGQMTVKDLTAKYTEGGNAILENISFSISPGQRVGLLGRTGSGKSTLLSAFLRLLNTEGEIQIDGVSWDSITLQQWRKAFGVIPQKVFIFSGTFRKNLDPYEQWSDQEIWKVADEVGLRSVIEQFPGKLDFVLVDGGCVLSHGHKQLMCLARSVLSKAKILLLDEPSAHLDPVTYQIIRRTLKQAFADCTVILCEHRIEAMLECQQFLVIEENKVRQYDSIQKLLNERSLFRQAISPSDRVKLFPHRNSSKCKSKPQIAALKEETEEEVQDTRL
For the next data set, the system named is HCT-116. In words: Effect on HCT116 cells expressing wild-type PTEN assessed as 2-fold increase in PKB activity at 50 uM. Format: functional, cell-based. The settings on record: Homo sapiens.
Data set [5] is filed under the species Homo sapiens. The data set is described as follows: Displacement of peptide probe from MAGI3 PDZ2 domain by fluorescent polarization method.

These results are taken from ChEMBL document CHEMBL1138384, “Rational design of a nonpeptide general chemical scaffold for reversible inhibition of PDZ domain interactions” (Bioorg Med Chem Lett, 2007).

Activity calls are given as the source filed them. The rule behind the calls is not given here.

In the case of `CCCCCc1c(CO)c2cc(C)c(C(=O)O)cc2n1CCc1ccccc1`, the result in the data set filed under Homo sapiens [1] was Active. Further, the inhibition in the data set listed under Homo sapiens [2] worked out at 50%.
In the case of `CCCCC(O)c1cc2cc(C)c(C(=O)[O-])cc2n1CCc1ccccc1.[Na+]` (configuration not stated), the solubility in data set [3] was > 30 mM. Besides, the Activity entry (with HEK293; in data set [4]) was “Dose-dependent effect” each time. For the same molecule, the result in the data set on HCT-116 and in the data set listed under Homo sapiens [5] was Active.
